Laboratory results from paper PMC9135634 (Nature chemical biology, 2022).

Experiments:
HRAS(G12C) = HRAS(G12C) (Homo sapiens, UniProt P01112, G12C); assay: RAS BRET target engagement assay, live HEK-293 cells
HRAS WT = HRAS WT (Homo sapiens, UniProt P01112); assay: as above; format: cell-based
KRAS(G12C) = KRAS(G12C) (Homo sapiens, UniProt P01116, G12C); assay: as above; format: cell-based; conditions: BRET competition
NanoLuc-ABL1 = NanoLuc-ABL1 (Homo sapiens, UniProt P00519); assay: NanoBRET TE Intracellular Kinase Assay, K-4; format: cell-based
KRAS WT = KRAS WT (Homo sapiens, UniProt P01116); assay: RAS BRET target engagement assay; format: cell-based; conditions: across all RAS variants studied
NanoBiT-KRAS WT = NanoBiT-KRAS WT (Homo sapiens, UniProt P01116); assay: NanoBiT-RAS luminescence; format: cell-based; conditions: live cells; titration
KRAS(D54R) : CRAF(RBD) = KRAS(D54R) : CRAF(RBD) (Homo sapiens, UniProt P01116, D54R); assay: NanoBiT-KRAS:CRAF; format: cell-based
KRAS(Y96D) = KRAS(Y96D) (Homo sapiens, UniProt P01116, Y96D); assay: RAS BRET target engagement assay, live HEK-293 cells; format: cell-based
HEK-293 cells = format: cell-based; conditions: RAS-independent cell line
A375 cells = assay: Anti-proliferative activity, CellTiter-Glo 2.0; format: cell-based; conditions: BRAF V600E, RAS-independent

Sequence of NanoLuc-ABL1 (P00519 whole entry): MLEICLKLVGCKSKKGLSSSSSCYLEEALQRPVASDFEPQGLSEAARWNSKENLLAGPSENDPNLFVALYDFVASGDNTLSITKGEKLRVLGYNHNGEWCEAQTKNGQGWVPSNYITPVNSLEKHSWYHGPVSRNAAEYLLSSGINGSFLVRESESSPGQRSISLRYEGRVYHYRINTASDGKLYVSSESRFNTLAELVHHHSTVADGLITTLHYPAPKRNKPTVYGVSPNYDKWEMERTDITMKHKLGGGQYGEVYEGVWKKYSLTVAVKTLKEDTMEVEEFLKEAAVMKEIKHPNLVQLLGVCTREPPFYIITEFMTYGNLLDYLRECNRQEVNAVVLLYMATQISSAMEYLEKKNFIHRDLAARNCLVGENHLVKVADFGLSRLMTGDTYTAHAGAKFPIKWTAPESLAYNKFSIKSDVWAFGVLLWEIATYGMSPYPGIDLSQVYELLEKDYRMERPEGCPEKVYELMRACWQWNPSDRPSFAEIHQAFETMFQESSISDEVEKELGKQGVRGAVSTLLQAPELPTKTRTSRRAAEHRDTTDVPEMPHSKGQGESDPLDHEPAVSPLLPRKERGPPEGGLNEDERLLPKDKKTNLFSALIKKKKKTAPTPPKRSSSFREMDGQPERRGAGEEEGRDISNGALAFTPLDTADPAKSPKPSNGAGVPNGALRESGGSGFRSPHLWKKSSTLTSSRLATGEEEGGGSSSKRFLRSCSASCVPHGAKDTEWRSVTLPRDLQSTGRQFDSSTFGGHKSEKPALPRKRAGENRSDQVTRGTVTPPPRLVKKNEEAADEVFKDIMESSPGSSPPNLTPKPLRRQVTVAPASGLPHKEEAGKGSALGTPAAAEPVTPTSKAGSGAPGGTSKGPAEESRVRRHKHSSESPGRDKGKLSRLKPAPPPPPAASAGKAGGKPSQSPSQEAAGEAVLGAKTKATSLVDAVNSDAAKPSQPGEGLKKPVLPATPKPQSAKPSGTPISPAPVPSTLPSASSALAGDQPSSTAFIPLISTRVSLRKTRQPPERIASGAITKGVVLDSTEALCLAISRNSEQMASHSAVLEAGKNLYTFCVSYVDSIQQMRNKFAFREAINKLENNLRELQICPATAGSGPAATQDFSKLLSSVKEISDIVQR

SMILES: C=CC(=O)N1CCN(c2nc(=O)n(-c3c(C)ccnc3C(C)C)c3nc(-c4c(O)cccc4F)c(F)cc23)[C@@H](C)C1 [AMG510, sotorasib]
- BRET engagement (HRAS(G12C)): showed vulnerability
- BRET engagement (HRAS WT): No engagement

SMILES: C=CC(=O)N1CCN(c2ncnc3c(F)c(-c4c(O)cccc4F)c(Cl)cc23)CC1 [ARS-1620]
- hill coefficient (KRAS(G12C)): 1.1

SMILES: Cn1cnc(Cn2ccc3ccc(CNCc4[nH]c5ccccc5c4[C@H]4NC(=O)c5ccc(O)cc54)cc32)c1 [BI-2852]
- effect on BRET or luminescence in irrelevant target engagement assay (NanoLuc-ABL1): had no effect on the BRET or luminescence
- Hill coefficients, mean (KRAS WT): 1.9 ± 0.7
- Hill coefficients, range (KRAS WT): 1.3−3.3
- effect on RAS dimerization NanoBiT signal (NanoBiT-KRAS WT): did not impact
- inhibition of CRAF-RBD interaction with KRAS(D54R) dimers (KRAS(D54R) : CRAF(RBD)): unable to inhibit the interaction

SMILES: CCC(=O)N1CCN(c2nc(OC[C@@H]3CCCN3C)nc3c2CCN(c2cccc4cccc(Cl)c24)C3)C[C@@H]1CC#N [Compound 10]
- BRET engagement (KRAS(Y96D)): not observed

SMILES: C=C(F)C(=O)N1CCN(c2nc(OC[C@@H]3CCCN3C)nc3c2CCN(c2cccc4cccc(Cl)c24)C3)C[C@@H]1CC#N [MRTX849]
- BRET engagement (HRAS(G12C)): showed vulnerability
- affinity for HRAS(G12C) weaker than that observed for KRAS(G12C) (HRAS(G12C)): 3 orders of magnitude
- anti-proliferative / cytotoxic effect (HEK-293 cells): the same effect
- BRET engagement (HRAS WT): No engagement
- anti-proliferative effect (A375 cells): the same effect
